Test results published in ChEMBL document CHEMBL4184140, “Expanding the tetrahydroquinoline pharmacophore” (Bioorg Med Chem Lett, 2017).
Activity calls are given as the source filed them. No cut-off for these calls is given here.

Columns and labels:
MCF7 = assay: Antiproliferative activity against human MCF7 cells; assay type: functional, cell-based
IMR-32 [1] = assay: Neurotrophic activity in human IMR32 cells assessed as induction of differentiation at 1 uM after 96 hrs by bright filed microscopic method; assay type: functional, cell-based
IMR-32 [2] = assay: Neurotrophic activity in human IMR32 cells assessed as induction of differentiation at 10 uM after 96 hrs by bright filed microscopic method; assay type: functional, cell-based
IMR-32 [3] = assay: Cytotoxicity against human IMR32 cells after 48 hrs by SRB assay; assay type: cell-based; details: IMR-32, 48 h
A549 = assay: Antiproliferative activity against human A549 cells; assay type: functional, cell-based
IMR-32 [4] = assay: Neurotrophic activity in human IMR32 cells assessed as increase in BDNF mRNA level at 10 uM by RT-PCR analysis; assay type: functional, cell-based
HepG2 = assay: Antiproliferative activity against human HepG2 cells; assay type: functional, cell-based
IMR-32 [5] = assay: Neurotrophic activity in human IMR32 cells assessed as increase in BDNF protein level at 10 uM by Western blot method; assay type: functional, cell-based
DU-145 = assay: Antiproliferative activity against human DU145 cells; assay type: functional, cell-based
IMR-32 [6] = assay: Neurotrophic activity in human IMR32 cells assessed as increase in NGF protein level at 10 uM by Western blot method; assay type: functional, cell-based
IMR-32 [7] = assay: Neurotrophic activity in human IMR32 cells assessed as increase in NGF mRNA level at 10 uM by RT-PCR analysis; assay type: functional, cell-based
IMR-32 [8] = assay: Neurotrophic activity in human IMR32 cells assessed as length of neurite outgrown after 96 hrs by bright field microscopic analysis; assay type: functional, cell-based
IMR-32 [9] = assay: Neurotrophic activity in human IMR32 cells assessed as induction of differentiation at 50 uM after 96 hrs by bright filed microscopic method; assay type: functional, cell-based
IMR-32 [10] = assay: Neurotrophic activity in human IMR32 cells assessed as appearance of neurites at 1 to 10 uM after 96 hrs by bright field microscopic analysis; assay type: functional, cell-based

**Q.** How did the Activity (MCF7) turn out when `C1=C[C@@H]2c3ccccc3N[C@H](c3ccccc3)[C@@H]2C1` was run?
**A.** inactive

**Q.** And the Activity (IMR-32 [1])?
**A.** Active

**Q.** And the Activity (IMR-32 [2])?
**A.** Active

**Q.** What about the IC50 (IMR-32 [3]) of the same compound?
**A.** > 100 µM

**Q.** And the Activity (A549)?
**A.** inactive

**Q.** What about the Activity (IMR-32 [4]) of the same compound?
**A.** Active

**Q.** And the Activity (HepG2)?
**A.** inactive

**Q.** What about the Activity (IMR-32 [5]) of the same compound?
**A.** Active

**Q.** What about the Activity (DU-145) of the same compound?
**A.** inactive

**Q.** What about the Activity (IMR-32 [6]) of the same compound?
**A.** Active

**Q.** What about the Activity (IMR-32 [7]) of the same compound?
**A.** Active

**Q.** What about the Activity (IMR-32 [8]) of the same compound?
**A.** Dose-dependent effect

**Q.** With `CC(=O)N1c2cc([N+](=O)[O-])ccc2[C@@H]2[C@@H](C[C@@H]3O[C@H]23)[C@H]1c1ccccc1` as the compound, how does the Activity (MCF7) read?
**A.** inactive

**Q.** And the Activity (IMR-32 [2])?
**A.** Active

**Q.** And the IC50 (IMR-32 [3])?
**A.** 56 µM

**Q.** And the Activity (A549)?
**A.** inactive

**Q.** And the Activity (HepG2)?
**A.** inactive

**Q.** What about the Activity (DU-145) of the same compound?
**A.** inactive

**Q.** How did the Activity (MCF7) turn out when `COC(=O)C[C@@H]1[C@H](C(=O)OC)c2ccccc2N(C(C)=O)[C@@H]1c1ccccc1` was run?
**A.** inactive

**Q.** What about the Activity (IMR-32 [2]) of the same compound?
**A.** Active

**Q.** What about the IC50 (IMR-32 [3]) of the same compound?
**A.** 80.6 µM

**Q.** And the Activity (A549)?
**A.** inactive

**Q.** And the Activity (IMR-32 [4])?
**A.** Active

**Q.** What about the Activity (HepG2) of the same compound?
**A.** inactive

**Q.** And the Activity (IMR-32 [5])?
**A.** Active

**Q.** What about the Activity (IMR-32 [9]) of the same compound?
**A.** Active

**Q.** What about the Activity (DU-145) of the same compound?
**A.** inactive

**Q.** What about the Activity (IMR-32 [6]) of the same compound?
**A.** Active

**Q.** And the Activity (IMR-32 [7])?
**A.** Active

**Q.** And the Activity (IMR-32 [8])?
**A.** Dose-dependent effect

**Q.** `CC(=O)N1c2cc([N+](=O)[O-])ccc2[C@H]2C=CC[C@H]2[C@H]1c1ccccc1` was tested. Which Activity (MCF7) did it give?
**A.** inactive

**Q.** What about the IC50 (IMR-32 [3]) of the same compound?
**A.** > 100 µM

**Q.** What about the Activity (A549) of the same compound?
**A.** inactive

**Q.** What about the Activity (IMR-32 [4]) of the same compound?
**A.** Active

**Q.** What about the Activity (HepG2) of the same compound?
**A.** inactive

**Q.** What about the Activity (IMR-32 [5]) of the same compound?
**A.** Active

**Q.** And the Activity (DU-145)?
**A.** inactive

**Q.** What about the Activity (IMR-32 [6]) of the same compound?
**A.** Active

**Q.** And the Activity (IMR-32 [10])?
**A.** Active

**Q.** What about the Activity (IMR-32 [7]) of the same compound?
**A.** Active

**Q.** What about the Activity (IMR-32 [8]) of the same compound?
**A.** Dose-dependent effect

**Q.** `CC(=O)N1c2ccccc2[C@@H]2[C@@H](C[C@@H]3O[C@H]23)[C@H]1c1ccccc1` was tested. Which Activity (MCF7) did it give?
**A.** inactive

**Q.** And the Activity (IMR-32 [2])?
**A.** Active

**Q.** And the IC50 (IMR-32 [3])?
**A.** > 100 µM

**Q.** What about the Activity (A549) of the same compound?
**A.** inactive

**Q.** And the Activity (IMR-32 [4])?
**A.** Active

**Q.** And the Activity (HepG2)?
**A.** inactive

**Q.** And the Activity (IMR-32 [5])?
**A.** Active

**Q.** And the Activity (DU-145)?
**A.** inactive

**Q.** What about the Activity (IMR-32 [6]) of the same compound?
**A.** Active

**Q.** And the Activity (IMR-32 [7])?
**A.** Active

**Q.** What about the Activity (IMR-32 [8]) of the same compound?
**A.** Dose-dependent effect

**Q.** What does the source list for `O[C@@H]1[C@@H]2c3ccccc3N[C@H](c3cccc(Br)c3)[C@@H]2C[C@@H]1O`?
**A.** Activity (MCF7): inactive; Activity (IMR-32 [2]): Active; IC50 (IMR-32 [3]): > 100 µM; Activity (A549): inactive; Activity (IMR-32 [4]): Active; Activity (HepG2): inactive; Activity (IMR-32 [5]): Active; Activity (DU-145): inactive; Activity (IMR-32 [6]): Active; Activity (IMR-32 [10]): Active; Activity (IMR-32 [7]): Active; Activity (IMR-32 [8]): Dose-dependent effect

**Q.** How did the Activity (MCF7) turn out when `CC(=O)N1c2ccccc2[C@H]2[C@@H](O)[C@H](N=[N+]=[N-])C[C@H]2[C@H]1c1ccccc1` was run?
**A.** inactive

**Q.** And the Activity (IMR-32 [2])?
**A.** Active

**Q.** What about the IC50 (IMR-32 [3]) of the same compound?
**A.** > 100 µM

**Q.** And the Activity (A549)?
**A.** inactive

**Q.** What about the Activity (IMR-32 [4]) of the same compound?
**A.** Active

**Q.** What about the Activity (HepG2) of the same compound?
**A.** inactive

**Q.** And the Activity (IMR-32 [5])?
**A.** Active

**Q.** And the Activity (DU-145)?
**A.** inactive

**Q.** What about the Activity (IMR-32 [6]) of the same compound?
**A.** Active

**Q.** And the Activity (IMR-32 [7])?
**A.** Active

**Q.** And the Activity (IMR-32 [8])?
**A.** Dose-dependent effect

**Q.** Which results are given for `CC(=O)N1c2ccccc2[C@H]2C=CC[C@H]2[C@H]1c1cccc(Br)c1`?
**A.** Activity (MCF7): inactive; IC50 (IMR-32 [3]): > 100 µM; Activity (A549): inactive; Activity (HepG2): inactive; Activity (DU-145): inactive; Activity (IMR-32 [10]): inactive

**Q.** `Cc1ccccc1[C@H]1Nc2ccccc2[C@H]2C=CC[C@H]21` was tested. Which Activity (MCF7) did it give?
**A.** inactive

**Q.** And the IC50 (IMR-32 [3])?
**A.** 87.2 µM

**Q.** And the Activity (A549)?
**A.** inactive

**Q.** What about the Activity (HepG2) of the same compound?
**A.** inactive

**Q.** What about the Activity (DU-145) of the same compound?
**A.** inactive

**Q.** And the Activity (IMR-32 [10])?
**A.** inactive

**Q.** What does the source list for `O=[N+]([O-])c1ccc2c(c1)N[C@H](c1ccccc1)[C@@H]1CC=C[C@H]21`?
**A.** Activity (MCF7): inactive; IC50 (IMR-32 [3]): > 100 µM; Activity (A549): inactive; Activity (HepG2): inactive; Activity (DU-145): inactive; Activity (IMR-32 [10]): inactive
